# Counter-ions that a name gives are not always drawn.
# Columns and labels:
# [1] = molecular target: T1, human phosphodiesterase 5 (PDE 5) (Homo sapiens, UniProt O76074); experiment: Inhibition of human phosphodiesterase 5 (PDE 5) (B-3); assay type: biochemical; settings: PDE 5 preparation from human platelets; [8-3H] cGMP substrate, SPA; in some cases means of individual determinations
# T1 construct: PDE 5 preparations are obtained from human platelets by disruption; from tissue; host or cells: human platelets (Mono Q ion exchange fractions with PDE 5 activity)
# Summary of the method: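 Enzyme partially purified from human platelets by Mono Q ion exchange; [8-3H]cGMP substrate (0.025 μCi), Tris-HCl pH 7.5 with MgCl2/EDTA, <70% conversion, 60 min at room temperature. Compounds tested at 4 to 0.0018 μM final; yttrium SPA bead read-out, IC50 from concentration–% inhibition plot.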
# [2] = molecular target: T2, recombinant guanylate cyclase reporter cell line (Rattus norvegicus, UniProt P19686+P20595); experiment: Effect on a recombinant guanylate cyclase reporter cell line (B-2); assay type: cell-based; settings: MEC = minimum effective concentration, in some cases mean values for individual determinations
# T2 construct: expressed in transfected cells
# T2 sequence (P19686 1-690): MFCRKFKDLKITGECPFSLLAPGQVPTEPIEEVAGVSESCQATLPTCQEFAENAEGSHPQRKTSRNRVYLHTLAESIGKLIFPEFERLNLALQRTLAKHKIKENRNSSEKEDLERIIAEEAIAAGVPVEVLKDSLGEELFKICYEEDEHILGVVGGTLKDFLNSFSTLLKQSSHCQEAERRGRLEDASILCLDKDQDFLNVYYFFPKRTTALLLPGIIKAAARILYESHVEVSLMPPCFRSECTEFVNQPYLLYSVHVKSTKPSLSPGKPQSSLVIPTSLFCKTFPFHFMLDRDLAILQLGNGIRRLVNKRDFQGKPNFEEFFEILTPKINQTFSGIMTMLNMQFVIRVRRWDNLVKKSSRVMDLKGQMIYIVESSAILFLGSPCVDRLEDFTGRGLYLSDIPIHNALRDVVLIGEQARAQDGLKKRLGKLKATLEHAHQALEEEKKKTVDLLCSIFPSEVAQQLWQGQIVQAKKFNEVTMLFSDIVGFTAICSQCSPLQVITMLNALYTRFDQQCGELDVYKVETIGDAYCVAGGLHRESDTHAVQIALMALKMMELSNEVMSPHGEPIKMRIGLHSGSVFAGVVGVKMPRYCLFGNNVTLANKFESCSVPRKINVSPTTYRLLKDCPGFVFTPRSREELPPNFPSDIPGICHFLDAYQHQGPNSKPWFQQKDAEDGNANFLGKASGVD
# T2 sequence (P20595 1-619): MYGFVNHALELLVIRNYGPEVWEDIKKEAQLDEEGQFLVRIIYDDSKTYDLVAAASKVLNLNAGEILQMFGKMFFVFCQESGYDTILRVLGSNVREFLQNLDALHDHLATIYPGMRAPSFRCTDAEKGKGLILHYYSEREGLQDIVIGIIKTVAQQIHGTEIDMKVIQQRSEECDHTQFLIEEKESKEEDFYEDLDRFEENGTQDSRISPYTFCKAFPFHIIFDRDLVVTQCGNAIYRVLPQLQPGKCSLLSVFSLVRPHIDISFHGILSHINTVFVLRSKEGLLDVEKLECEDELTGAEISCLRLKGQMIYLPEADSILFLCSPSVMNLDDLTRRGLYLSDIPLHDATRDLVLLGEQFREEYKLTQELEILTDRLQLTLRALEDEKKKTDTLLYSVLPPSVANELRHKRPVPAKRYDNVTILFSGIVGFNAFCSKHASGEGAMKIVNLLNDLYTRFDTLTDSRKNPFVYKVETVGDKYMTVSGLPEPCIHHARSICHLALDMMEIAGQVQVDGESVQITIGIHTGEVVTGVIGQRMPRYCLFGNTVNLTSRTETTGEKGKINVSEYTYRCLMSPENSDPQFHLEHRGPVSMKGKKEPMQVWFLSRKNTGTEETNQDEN
# Summary of the method: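 Cellular guanylate cyclase activity measured in a recombinant reporter cell line expressing rat soluble guanylate cyclase subunits. Values are minimum effective concentrations (MEC), some as means of individual determinations.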
IC50 [1],MEC [2],SMILES
0.02 µM,0.3 µM,"Cc1nc2c(OCc3c(F)cccc3F)cccn2c1-c1nc2c(c(N3CCC[C@H]3CO)n1)C(C)(C)C(=O)N2 [Example 36, 2-{8-[(2,6-difluorobenzyl)oxy]-2-methylimidazo[1,2-a]pyridin-3-yl}-4-[(2S)-2-(hydroxymethyl)pyrrolidin-1-yl]-5,5-dimethyl-5,7-dihydro-6H-pyrrolo[2,3-d]pyrimidin-6-one]"
0.73 µM,3 µM,"Cc1nc2c(OCc3c(F)ccc(F)c3F)cccn2c1-c1nc2c(c(C(=O)N3CC(N)C(F)(F)C3)n1)C(C)(C)C(=O)N2 (racemic) [Example 61, rac-4-[(4-amino-3,3-difluoropyrrolidin-1-yl)carbonyl]-5,5-dimethyl-2-{2-methyl-8-[(2,3,6-trifluorobenzyl)oxy]imidazo[1,2-a]pyridin-3-yl}-5,7-dihydro-6H-pyrrolo[2,3-d]pyrimidin-6-one trifluoroacetate]"
0.004 µM,0.3 µM,"Cc1nc2c(OCc3c(F)cccc3F)cccn2c1-c1nc2c(c(C(=O)NC3CC3)n1)C(C)(C)C(=O)N2 [Example 55, N-Cyclopropyl-2-{8-[(2,6-difluorobenzyl)oxy]-2-methylimidazo[1,2-a]pyridin-3-yl}-5,5-dimethyl-6-oxo-6,7-dihydro-5H-pyrrolo[2,3-d]pyrimidine-4-carboxamide]"
0.4 µM,3 µM,"Cc1nc2c(OCc3c(F)ccc(F)c3F)cccn2c1-c1nc2c(c(C(=O)N3CCC(O)C3)n1)C(C)(C)C(=O)N2 (racemic) [Example 62, rac-4-[(3-hydroxypyrrolidin-1-yl)carbonyl]-5,5-dimethyl-2-{2-methyl-8-[(2,3,6-trifluorobenzyl)oxy]imidazo[1,2-a]pyridin-3-yl}-5,7-dihydro-6H-pyrrolo[2,3-d]pyrimidin-6-one]"
0.0036 µM,1 µM,"Cc1nc2c(OCc3c(F)cccc3F)cccn2c1-c1nc2c(c(NC3CC(O)C3)n1)C(C)(C)C(=O)N2 (mixture of isomers) [Example 30, 2-{8-[(2,6-difluorobenzyl)oxy]-2-methylimidazo[1,2-a]pyridin-3-yl}-4-[(3-hydroxycyclobutyl)amino]-5,5-dimethyl-5,7-dihydro-6H-pyrrolo[2,3-d]pyrimidin-6-one [cis/trans mixture]]"
0.015 µM,3 µM,"Cc1nc2c(OCc3c(F)cccc3F)cccn2c1-c1nc(NCC(N)C(F)(F)F)c2c(n1)NC(=O)C2(C)C (racemic) [Example 25, rac-4-[(2-amino-3,3,3-trifluoropropyl)amino]-2-{8-[(2,6-difluorobenzyl)oxy]-2-methylimidazo[1,2-a]pyridin-3-yl}-5,5-dimethyl-5,7-dihydro-6H-pyrrolo[2,3-d]pyrimidin-6-one]"
0.0097 µM,1 µM,"Cc1nc2c(OCc3c(F)cccc3F)cccn2c1-c1nc(NCC(N)(CF)CF)c2c(n1)NC(=O)C2(C)C [Example 33, 4-{[2-amino-3-fluoro-2-(fluoromethyl)propyl]amino}-2-{8-[(2,6-difluorobenzyl)oxy]-2-methylimidazo[1,2-a]pyridin-3-yl}-5,5-dimethyl-5,7-dihydro-6H-pyrrolo[2,3-d]pyrimidin-6-one]"
0.026 µM,3 µM,"Cc1nc2c(OCc3c(F)cccc3F)cccn2c1-c1nc(NCCN2CCC(F)(F)C2)c2c(n1)NC(=O)C2(C)C [Example 26, 2-{8-[(2,6-difluorobenzyl)oxy]-2-methylimidazo[1,2-a]pyridin-3-yl}-4-{[2-(3,3-difluoropyrrolidin-1-yl)ethyl]amino)-5,5-dimethyl-5,7-dihydro-6H-pyrrolo[2,3-d]pyrimidin-6-one]"
0.035 µM,1 µM,"COCC(C)(N)CNc1nc(-c2c(C)nc3c(OCc4c(F)ccc(F)c4F)cccn23)nc2c1C(C)(C)C(=O)N2 (racemic) [Example 35, rac-4-[(2-amino-3-methoxy-2-methylpropyl)amino]-5,5-dimethyl-2-{2-methyl-8-[(2,3,6-trifluorobenzyl)oxy]imidazo[1,2-a]pyridin-3-yl}-5,7-dihydro-6H-pyrrolo[2,3-d]pyrimidin-6-one formate]"
0.034 µM,0.3 µM,"Cc1nc2c(OCc3c(F)cccc3F)cccn2c1-c1nc(N)c2c(n1)NC(=O)C2(C)C [Example 1, 4-Amino-2-{8-[(2,6-difluorobenzyl)oxy]-2-methylimidazo[1,2-a]pyridin-3-yl}-5,5-dimethyl-5,7-dihydro-6H-pyrrolo[2,3-d]pyrimidin-6-one]"
0.43 µM,10 µM,"Cc1nc2c(OCc3c(F)cccc3F)cccn2c1-c1nc2c(c(C(=O)O)n1)C(C)(C)C(=O)N2 [Example 51, 2-{8-[(2,6-Difluorobenzyl)oxy]-2-methylimidazo[1,2-a]pyridin-3-yl}-5,5-dimethyl-6-oxo-6,7-dihydro-5H-pyrrolo[2,3-d]pyrimidine-4-carboxylic acid]"
0.011 µM,1 µM,"Cc1nc2c(OCc3c(F)cccc3F)cccn2c1-c1nc2c(c(N3C[C@H]4C[C@@]4(N)C3)n1)C(C)(C)C(=O)N2 (relative stereo) [Example 32, rac-rel-4-[(1R,5S)-1-amino-3-azabicyclo[3.1.0]hex-3-yl]-2-{8-[(2,6-difluorobenzyl)oxy]-2-methylimidazo[1,2-a]pyridin-3-yl}-5,5-dimethyl-5,7-dihydro-6H-pyrrolo[2,3-d]pyrimidin-6-one formate]"
0.0043 µM,0.3 µM,"Cc1nc2c(OCc3c(F)ccc(F)c3F)cccn2c1-c1nc2c(c(C(N)=O)n1)C(C)(C)C(=O)N2 [Example 53, 5,5-Dimethyl-2-{2-methyl-8-[(2,3,6-trifluorobenzyl)oxy]imidazo[1,2-a]pyridin-3-yl}-6-oxo-6,7-dihydro-5H-pyrrolo[2,3-d]pyrimidine-4-carboxamide]"
0.0055 µM,3 µM,"Cc1nc2c(OCc3c(F)cccc3F)cccn2c1-c1nc2c(c(-n3cc(O)cn3)n1)C(C)(C)C(=O)N2 [Example 43, 2-{8-[(2,6-Difluorobenzyl)oxy]-2-methylimidazo[1,2-a]pyridin-3-yl}-4-(4-hydroxy-1H-pyrazol-1-yl)-5,5-dimethyl-5,7-dihydro-6H-pyrrolo[2,3-d]pyrimidin-6-one]"
0.26 µM,3 µM,"Cc1nc2c(OCc3c(F)ccc(F)c3F)cccn2c1-c1nc(O)c2c(n1)NC(=O)C2(C)C [Example 11, 4-Hydroxy-5,5-dimethyl-2-{2-methyl-8-[(2,3,6-trifluorobenzyl)oxy]imidazo[1,2-a]pyridin-3-yl}-5,7-dihydro-6H-pyrrolo[2,3-d]pyrimidin-6-one]"
0.42 µM,3 µM,"Cc1nc2c(OCc3c(F)ccc(F)c3F)cccn2c1-c1nc2c(c(C(=O)N3CCN(C)CC3)n1)C(C)(C)C(=O)N2 [Example 60, 5,5-dimethyl-4-[(4-methylpiperazin-1-yl)carbonyl]-2-{2-methyl-8-[(2,3,6-trifluorobenzyl)oxy]imidazo[1,2-a]pyridin-3-yl}-5,7-dihydro-6H-pyrrolo[2,3-d]pyrimidin-6-one trifluoroacetate]"
0.006 µM,0.1 µM,"Cc1nc2c(OCc3c(F)cccc3F)cccn2c1-c1nc(NCC2(N)CC2)c2c(n1)NC(=O)C2(C)C [Example 42, 4-{[(1-Aminocyclopropyl)methyl]amino}-2-{8-[(2,6-difluorobenzyl)oxy]-2-methylimidazo[1,2-a]pyridin-3-yl}-5,5-dimethyl-5,7-dihydro-6H-pyrrolo[2,3-d]pyrimidin-6-one]"

# From patent US9688699B2, “3-(pyrimidine-2-yl)imidazo[1,2-a]pyridines” (Bayer Pharma Aktiengesellschaft, priority 2014, dated 2017)
